In PMC4769319, “Cohesin Releases DNA through Asymmetric ATPase-Driven Ring Opening” (Molecular Cell, 2016):

Target: T1, Smc1/Smc3 heterodimer with Scc1-C (cohesin) (Saccharomyces cerevisiae, UniProt P32908+P47037, P32908:L1129V, form not given)
T1 construct: N-terminal tags; Sf9 insect cells; fluorescently labelled for MST; with Sister chromatid cohesion protein 1
T1 sequence (P32908 1-1225 L1129V): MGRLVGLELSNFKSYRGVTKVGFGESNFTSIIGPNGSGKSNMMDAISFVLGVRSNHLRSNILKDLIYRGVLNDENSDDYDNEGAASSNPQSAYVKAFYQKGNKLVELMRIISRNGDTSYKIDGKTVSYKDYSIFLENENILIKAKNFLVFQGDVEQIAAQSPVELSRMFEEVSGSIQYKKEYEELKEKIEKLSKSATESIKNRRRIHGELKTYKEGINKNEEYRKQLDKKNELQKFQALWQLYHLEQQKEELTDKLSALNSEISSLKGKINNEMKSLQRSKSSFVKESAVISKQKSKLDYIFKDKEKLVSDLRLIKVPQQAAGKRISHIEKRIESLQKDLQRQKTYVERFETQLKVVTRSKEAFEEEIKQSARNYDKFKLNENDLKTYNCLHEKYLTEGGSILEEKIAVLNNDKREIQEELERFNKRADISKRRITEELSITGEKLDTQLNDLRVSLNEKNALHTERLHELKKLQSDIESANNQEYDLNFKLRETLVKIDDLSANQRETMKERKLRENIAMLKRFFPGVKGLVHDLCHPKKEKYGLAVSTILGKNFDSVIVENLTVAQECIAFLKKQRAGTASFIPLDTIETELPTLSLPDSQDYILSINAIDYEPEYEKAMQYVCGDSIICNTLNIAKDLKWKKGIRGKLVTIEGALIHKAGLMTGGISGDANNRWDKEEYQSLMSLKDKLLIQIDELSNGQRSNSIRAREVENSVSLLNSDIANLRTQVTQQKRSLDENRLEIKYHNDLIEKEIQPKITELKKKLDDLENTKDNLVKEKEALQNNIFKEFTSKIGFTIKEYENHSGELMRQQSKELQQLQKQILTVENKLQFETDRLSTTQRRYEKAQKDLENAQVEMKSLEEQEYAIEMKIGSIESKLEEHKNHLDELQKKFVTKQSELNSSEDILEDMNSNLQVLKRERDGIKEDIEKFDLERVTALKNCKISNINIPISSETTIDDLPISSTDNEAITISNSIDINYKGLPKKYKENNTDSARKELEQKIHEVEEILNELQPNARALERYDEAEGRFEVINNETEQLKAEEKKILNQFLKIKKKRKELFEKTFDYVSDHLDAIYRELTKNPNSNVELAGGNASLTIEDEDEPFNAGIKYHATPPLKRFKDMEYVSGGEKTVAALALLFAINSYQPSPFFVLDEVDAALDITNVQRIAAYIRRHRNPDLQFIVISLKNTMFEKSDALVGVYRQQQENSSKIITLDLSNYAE
T1 sequence (P47037 1-1230): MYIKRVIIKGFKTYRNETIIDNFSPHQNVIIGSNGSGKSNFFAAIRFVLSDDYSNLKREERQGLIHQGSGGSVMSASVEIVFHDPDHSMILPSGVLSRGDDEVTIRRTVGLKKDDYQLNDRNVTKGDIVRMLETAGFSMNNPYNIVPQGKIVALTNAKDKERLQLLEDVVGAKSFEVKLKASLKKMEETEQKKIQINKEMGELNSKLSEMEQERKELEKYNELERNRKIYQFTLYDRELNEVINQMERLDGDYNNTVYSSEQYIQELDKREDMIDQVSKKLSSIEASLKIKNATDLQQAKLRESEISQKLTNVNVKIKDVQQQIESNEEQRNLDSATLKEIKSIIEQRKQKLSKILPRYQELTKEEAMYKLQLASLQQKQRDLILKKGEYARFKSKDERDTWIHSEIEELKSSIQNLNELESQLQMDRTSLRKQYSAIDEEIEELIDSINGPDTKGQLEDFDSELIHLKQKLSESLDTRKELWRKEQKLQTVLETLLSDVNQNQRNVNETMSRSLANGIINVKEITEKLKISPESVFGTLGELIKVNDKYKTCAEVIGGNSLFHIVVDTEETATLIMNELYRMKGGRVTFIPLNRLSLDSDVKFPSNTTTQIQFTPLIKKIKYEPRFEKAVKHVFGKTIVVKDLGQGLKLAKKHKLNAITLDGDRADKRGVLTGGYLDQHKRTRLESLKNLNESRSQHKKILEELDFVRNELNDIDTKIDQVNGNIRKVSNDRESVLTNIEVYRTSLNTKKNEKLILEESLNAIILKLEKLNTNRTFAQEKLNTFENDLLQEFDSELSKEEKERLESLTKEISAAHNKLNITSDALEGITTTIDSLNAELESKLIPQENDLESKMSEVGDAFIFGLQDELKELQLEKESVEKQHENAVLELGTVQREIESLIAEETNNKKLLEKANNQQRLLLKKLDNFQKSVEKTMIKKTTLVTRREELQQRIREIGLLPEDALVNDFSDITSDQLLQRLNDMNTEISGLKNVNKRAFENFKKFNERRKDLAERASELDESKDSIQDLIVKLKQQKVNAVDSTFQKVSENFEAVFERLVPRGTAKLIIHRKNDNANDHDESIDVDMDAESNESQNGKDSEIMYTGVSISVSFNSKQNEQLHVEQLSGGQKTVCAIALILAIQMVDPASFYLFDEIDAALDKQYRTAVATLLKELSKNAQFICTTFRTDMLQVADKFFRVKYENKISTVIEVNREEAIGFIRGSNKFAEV
T1 sequence (Q12158 1-566 partner): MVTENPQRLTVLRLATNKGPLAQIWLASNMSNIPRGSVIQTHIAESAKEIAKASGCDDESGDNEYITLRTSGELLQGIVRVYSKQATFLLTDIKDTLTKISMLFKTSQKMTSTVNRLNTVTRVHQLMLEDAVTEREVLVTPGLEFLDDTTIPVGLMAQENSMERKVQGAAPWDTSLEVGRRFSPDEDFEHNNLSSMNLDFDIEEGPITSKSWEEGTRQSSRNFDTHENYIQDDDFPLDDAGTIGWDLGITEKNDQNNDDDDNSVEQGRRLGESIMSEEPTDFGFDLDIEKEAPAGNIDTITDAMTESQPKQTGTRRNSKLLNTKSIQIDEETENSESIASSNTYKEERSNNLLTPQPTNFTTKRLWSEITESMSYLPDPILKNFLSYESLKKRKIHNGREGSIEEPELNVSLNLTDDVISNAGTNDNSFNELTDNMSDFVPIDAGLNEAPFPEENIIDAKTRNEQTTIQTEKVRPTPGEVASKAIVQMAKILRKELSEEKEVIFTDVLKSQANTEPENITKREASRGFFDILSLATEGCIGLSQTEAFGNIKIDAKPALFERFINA
Assay: microscale thermophoresis
Type: binding
Conditions: fluorescently labelled protein; Smc1 co-purified with Scc1-C, plus Smc3; read-out: affinity
Description: microscale thermophoresis on Smc1/Smc3 heterodimer with Scc1-C (cohesin) | Smc1 L1129V, D1164E and E1158Q mutants all had wild-type-like affinity to both ATP and ADP | wild-type and mutant cohesin complexes appear to have similar affinities to ADP

Kd | SMILES
667 ± 211 µM | Nc1ncnc2c1ncn2[C@@H]1O[C@H](COP(=O)(O)OP(=O)(O)OP(=O)(O)O)[C@@H](O)[C@H]1O [ATP]
> 1000 µM | Nc1ncnc2c1ncn2[C@@H]1O[C@H](COP(=O)(O)OP(=O)(O)O)[C@@H](O)[C@H]1O [ADP]
